Results from PMC11124822, “Discovery and Anticancer Screening of Novel Oxindole-Based Derivative Bearing Pyridyl Group as Potent and Selective Dual FLT3/CDK2 Kinase Inhibitor” (Pharmaceuticals, 2024).

How the values were obtained:
Assay in all cases: NCI-60 antiproliferative screen (SRB)
OVCAR-5 = format: cell-based, human; details: Homo sapiens; 10 µM single dose, 48 h; OVCAR-5 (Ovarian); read-out: Growth inhibition (%)
NCI-H460 = format: cell-based, human; details: Homo sapiens; 10 µM single dose, 48 h; NCI-H460 (NSCLC); read-out: Growth inhibition (%)
MOLT-4 = format: cell-based; details: Homo sapiens; 10 µM single dose, 48 h; MOLT-4 (Leukemia); read-out: Growth inhibition (%)
SF-268 = format: cell-based, human; details: Homo sapiens; 10 µM single dose, 48 h; SF-268 (CNS); read-out: Growth inhibition (%)
UO-31 = format: cell-based, human; details: Homo sapiens; 10 µM single dose, 48 h; UO-31 (Renal); read-out: Growth inhibition (%)
MCF7 = format: cell-based, human; details: Homo sapiens; 10 µM single dose, 48 h; MCF7 (Breast); read-out: Growth inhibition (%)
OVCAR-4 = details: Homo sapiens, OVCAR-4, 48 h, read-out: Growth inhibition (%)
OVCAR-8 = format: cell-based, human; details: Homo sapiens; 10 µM single dose, 48 h; OVCAR-8 (Ovarian); read-out: Growth inhibition (%)
ACHN = format: cell-based, human; details: Homo sapiens; 10 µM single dose, 48 h; ACHN (Renal); read-out: Growth inhibition (%)
NCI-H226 = format: cell-based, human; details: Homo sapiens; 10 µM single dose, 48 h; NCI-H226 (NSCLC); read-out: Growth inhibition (%)
NCI-H522 = format: cell-based, human; details: Homo sapiens; 10 µM single dose, 48 h; NCI-H522 (NSCLC); read-out: Growth inhibition (%)
RPMI-8226 = format: cell-based, human; details: Homo sapiens; 10 µM single dose, 48 h; RPMI-8226 (Leukemia); read-out: Growth inhibition (%)
LOX IMVI = format: cell-based, human; details: Homo sapiens; 10 µM single dose, 48 h; LOX IMVI (Melanoma); read-out: Growth inhibition (%)
SK-OV-3 = format: cell-based, human; details: Homo sapiens; 10 µM single dose, 48 h; SK-OV-3 (Ovarian); read-out: Growth inhibition (%)
SNB-19 = format: cell-based, human; details: Homo sapiens; 10 µM single dose, 48 h; SNB-19 (CNS); read-out: Growth inhibition (%)
A498 = format: cell-based, human; details: Homo sapiens; 10 µM single dose, 48 h; A498 (Renal); read-out: Growth inhibition (%)
EKVX = format: cell-based, human; details: Homo sapiens; 10 µM single dose, 48 h; EKVX (NSCLC); read-out: Growth inhibition (%)
UACC-257 = format: cell-based, human; details: Homo sapiens; 10 µM single dose, 48 h; UACC-257 (Melanoma); read-out: Growth inhibition (%)
HL-60(TB) = format: cell-based, human; details: Homo sapiens; 10 µM single dose, 48 h; HL-60(TB) (Leukemia); read-out: Growth inhibition (%)
HCT-15 = format: cell-based, human; details: Homo sapiens; 10 µM single dose, 48 h; HCT-15 (Colon); read-out: Growth inhibition (%)
CAKI-1 = format: cell-based, human; details: Homo sapiens; 10 µM single dose, 48 h; CAKI-1 (Renal); read-out: Growth inhibition (%)
MDA-MB-468 = format: cell-based, human; details: Homo sapiens; 10 µM single dose, 48 h; MDA-MB-468 (Breast); read-out: Growth inhibition (%)
A549/ATCC = format: cell-based, human; details: Homo sapiens; 10 µM single dose, 48 h; A549/ATCC (NSCLC); read-out: Growth inhibition (%)
BT-549 = format: cell-based, human; details: Homo sapiens; 10 µM single dose, 48 h; BT-549 (Breast); read-out: Growth inhibition (%)
MALME-3M = format: cell-based, human; details: Homo sapiens; 10 µM single dose, 48 h; MALME-3M (Melanoma); read-out: Growth inhibition (%)
DU-145 = format: cell-based, human; details: Homo sapiens; 10 µM single dose, 48 h; DU-145 (Prostate); read-out: Growth inhibition (%)
KM12 = format: cell-based, human; details: Homo sapiens; 10 µM single dose, 48 h; KM12 (Colon); read-out: Growth inhibition (%)
CCRF-CEM = format: cell-based, human; details: Homo sapiens; 10 µM single dose, 48 h; CCRF-CEM (Leukemia); read-out: Growth inhibition (%)
OVCAR-3 = format: cell-based, human; details: Homo sapiens; 10 µM single dose, 48 h; OVCAR-3 (Ovarian); read-out: Growth inhibition (%)
SR = details: Homo sapiens, 48 h, read-out: Growth inhibition (%)

## O=C1Nc2ccc(F)cc2C1=Cc1ccc(OCc2ccccn2)cc1 (mixture of isomers) [Compound 5f, (E/Z)-5-fluoro-3-[4-(pyridin-2-ylmethoxy)benzylidene]indolin-2-one]
OVCAR-5
  inhibition at 10 µM: -9.45%
NCI-H460
  inhibition at 10 µM: 11.6%
MOLT-4
  inhibition at 10 µM: 3.55%
SF-268
  inhibition at 10 µM: 29.9%
UO-31
  inhibition at 10 µM: 26.5%
MCF7
  inhibition at 10 µM: 37.8%
OVCAR-4
  inhibition at 10 µM: 5.38%
OVCAR-8
  inhibition at 10 µM: 3.52%
ACHN
  inhibition at 10 µM: 23.8%
NCI-H226
  inhibition at 10 µM: 6.67%
NCI-H522
  inhibition at 10 µM: 68.1%
RPMI-8226
  inhibition at 10 µM: 19.4%
LOX IMVI
  inhibition at 10 µM: 12.6%
SK-OV-3
  inhibition at 10 µM: 3.75%
SNB-19
  inhibition at 10 µM: 12.9%
A498
  inhibition at 10 µM: 32.5%
EKVX
  inhibition at 10 µM: 15.8%
UACC-257
  inhibition at 10 µM: -4.06%
HL-60(TB)
  inhibition at 10 µM: 13.9%
HCT-15
  inhibition at 10 µM: 10.7%
CAKI-1
  inhibition at 10 µM: 33.5%
MDA-MB-468
  inhibition at 10 µM: 28.2%
A549/ATCC
  inhibition at 10 µM: -1.04%
BT-549
  inhibition at 10 µM: 13.2%
MALME-3M
  inhibition at 10 µM: 7.24%
DU-145
  inhibition at 10 µM: 7.73%
KM12
  inhibition at 10 µM: 18.8%
CCRF-CEM
  inhibition at 10 µM: 5.79%
OVCAR-3
  inhibition at 10 µM: 8.17%

## O=C1Nc2ccccc2C1=Cc1ccc(OCc2cccnc2)cc1 (mixture of isomers) [Compound 5i, (E/Z)-3-[4-(Pyridin-3-ylmethoxy)benzylidene]indolin-2-one]
OVCAR-5
  inhibition at 10 µM: -27.6%
NCI-H460
  inhibition at 10 µM: 21.7%
MOLT-4
  inhibition at 10 µM: 70%
SF-268
  inhibition at 10 µM: -19.6%
MCF7
  inhibition at 10 µM: 58%
OVCAR-4
  inhibition at 10 µM: 37.8%
OVCAR-8
  inhibition at 10 µM: 47.2%
ACHN
  inhibition at 10 µM: 37.5%
NCI-H226
  inhibition at 10 µM: 38.2%
NCI-H522
  inhibition at 10 µM: 49.9%
RPMI-8226
  inhibition at 10 µM: 45.4%
LOX IMVI
  inhibition at 10 µM: 55%
SK-OV-3
  inhibition at 10 µM: 13.2%
SNB-19
  inhibition at 10 µM: 37.1%
A498
  inhibition at 10 µM: -17.8%
EKVX
  inhibition at 10 µM: 31.7%
SR
  inhibition at 10 µM: 72%
UACC-257
  inhibition at 10 µM: 30.5%
HL-60(TB)
  inhibition at 10 µM: 49.9%
HCT-15
  inhibition at 10 µM: 60.5%
CAKI-1
  inhibition at 10 µM: 56.7%
MDA-MB-468
  inhibition at 10 µM: 51.2%
A549/ATCC
  inhibition at 10 µM: 26.2%
BT-549
  inhibition at 10 µM: 53.2%
DU-145
  inhibition at 10 µM: 39.8%
KM12
  inhibition at 10 µM: 87.4%
CCRF-CEM
  inhibition at 10 µM: 52.4%
OVCAR-3
  inhibition at 10 µM: -9.24%

## O=C1Nc2ccc(F)cc2C1=Cc1ccc(OCc2cccnc2)cc1 (mixture of isomers) [Compound 5j, (E/Z)-5-Fluoro-3-[4-(pyridin-3-ylmethoxy)benzylidene]indolin-2-one]
OVCAR-5
  inhibition at 10 µM: -11.2%
NCI-H460
  inhibition at 10 µM: 53.9%
MOLT-4
  inhibition at 10 µM: 88.5%
SF-268
  inhibition at 10 µM: 11.1%
MCF7
  inhibition at 10 µM: 91%
OVCAR-4
  inhibition at 10 µM: 47.2%
OVCAR-8
  inhibition at 10 µM: 65.1%
ACHN
  inhibition at 10 µM: 51.8%
NCI-H226
  inhibition at 10 µM: 55.6%
NCI-H522
  inhibition at 10 µM: 89.5%
RPMI-8226
  inhibition at 10 µM: 61.2%
LOX IMVI
  inhibition at 10 µM: 76.9%
SK-OV-3
  inhibition at 10 µM: 13.2%
SNB-19
  inhibition at 10 µM: 62.1%
A498
  inhibition at 10 µM: -29.1%
EKVX
  inhibition at 10 µM: 41%
SR
  inhibition at 10 µM: 73%
UACC-257
  inhibition at 10 µM: 39.8%
HL-60(TB)
  inhibition at 10 µM: 81.7%
HCT-15
  inhibition at 10 µM: 84.8%
CAKI-1
  inhibition at 10 µM: 67.6%
MDA-MB-468
  inhibition at 10 µM: 58.5%
A549/ATCC
  inhibition at 10 µM: 39.4%
BT-549
  inhibition at 10 µM: 65.7%
DU-145
  inhibition at 10 µM: 46.1%
KM12
  inhibition at 10 µM: 97.3%
CCRF-CEM
  inhibition at 10 µM: 75%
OVCAR-3
  inhibition at 10 µM: 9.05%

## O=C1Nc2ccc(Cl)cc2C1=Cc1ccc(OCc2cccnc2)cc1 (mixture of isomers) [Compound 5k, (E/Z)-5-Chloro-3-[4-(pyridin-3-ylmethoxy)benzylidene] indolin-2-one]
OVCAR-5
  inhibition at 10 µM: -34.5%
NCI-H460
  inhibition at 10 µM: 14.3%
MOLT-4
  inhibition at 10 µM: 52.6%
SF-268
  inhibition at 10 µM: 5.1%
MCF7
  inhibition at 10 µM: 55.5%
OVCAR-4
  inhibition at 10 µM: 21.2%
OVCAR-8
  inhibition at 10 µM: 23.4%
ACHN
  inhibition at 10 µM: 16.4%
NCI-H226
  inhibition at 10 µM: 11.8%
NCI-H522
  inhibition at 10 µM: 19.8%
RPMI-8226
  inhibition at 10 µM: 29.7%
LOX IMVI
  inhibition at 10 µM: 10.1%
SK-OV-3
  inhibition at 10 µM: 5.36%
SNB-19
  inhibition at 10 µM: 22.9%
A498
  inhibition at 10 µM: -31.6%
EKVX
  inhibition at 10 µM: 16.1%
SR
  inhibition at 10 µM: 66.1%
UACC-257
  inhibition at 10 µM: 2.42%
HL-60(TB)
  inhibition at 10 µM: 14.8%
HCT-15
  inhibition at 10 µM: 46.5%
CAKI-1
  inhibition at 10 µM: 51%
MDA-MB-468
  inhibition at 10 µM: 12.5%
A549/ATCC
  inhibition at 10 µM: 16.1%
BT-549
  inhibition at 10 µM: 14.5%
DU-145
  inhibition at 10 µM: 0.75%
KM12
  inhibition at 10 µM: 52.8%
CCRF-CEM
  inhibition at 10 µM: 36.4%
OVCAR-3
  inhibition at 10 µM: -10.9%

## O=C1Nc2ccccc2C1=Cc1ccc(OCc2ccncc2)cc1 (mixture of isomers) [Compound 5m, (E/Z)-3-[4-(Pyridin-4-ylmethoxy)benzylidene] indolin-2-one]
OVCAR-5
  inhibition at 10 µM: -33.2%
NCI-H460
  inhibition at 10 µM: 40.5%
MOLT-4
  inhibition at 10 µM: 78.5%
SF-268
  inhibition at 10 µM: 22.7%
UO-31
  inhibition at 10 µM: 44.7%
MCF7
  inhibition at 10 µM: 71.6%
OVCAR-4
  inhibition at 10 µM: 42.7%
OVCAR-8
  inhibition at 10 µM: 35%
ACHN
  inhibition at 10 µM: 24.1%
NCI-H226
  inhibition at 10 µM: 42.4%
NCI-H522
  inhibition at 10 µM: 32.7%
RPMI-8226
  inhibition at 10 µM: 71.5%
LOX IMVI
  inhibition at 10 µM: 41.4%
SK-OV-3
  inhibition at 10 µM: 9.38%
SNB-19
  inhibition at 10 µM: 43.1%
A498
  inhibition at 10 µM: 2.17%
EKVX
  inhibition at 10 µM: 63.5%
SR
  inhibition at 10 µM: 73.3%
UACC-257
  inhibition at 10 µM: 35.8%
HL-60(TB)
  inhibition at 10 µM: 55.3%
HCT-15
  inhibition at 10 µM: 62.3%
CAKI-1
  inhibition at 10 µM: 45.6%
MDA-MB-468
  inhibition at 10 µM: 91.1%
A549/ATCC
  inhibition at 10 µM: 34.5%
MALME-3M
  inhibition at 10 µM: 17.4%
DU-145
  inhibition at 10 µM: 33.7%
KM12
  inhibition at 10 µM: 66.3%
CCRF-CEM
  inhibition at 10 µM: 40.5%
OVCAR-3
  inhibition at 10 µM: 21.5%
